Assays:
[1] = tested on: Balanus amphitrite cyprids; conditions: reported value of commercially available biocide (Willemsen et al., 1998); cited from earlier work
[2] = tested on: marine bacteria (26 strains); test: Disk inhibition assay; type: cell-based, marine bacteria isolated from Singapore fouling communities; conditions: for zone of inhibition at 2 µg/disc: 2 μg per disc; for zone of inhibition at 10 µg/disc: 10 μg per disc
Procedure: Preparation of Drugs onto Disks for Assay
The non-antibiotic pharmaceuticals of Table 1 were prepared in the following way. A tablet with a known amount of active ingredient (as stated in the product information) was ground in a mortar and pestle and suspended in sterile deionized water to a concentration of 2 mg ml^−1. These samples were sonicated for at least 1 min. […] The two halves of the capsule were separated and the powder released straight into a bottle and suitable amount of water added to make a concentration of 2 mg ml^−1.
As a comparison to the pharmaceuticals, to determine the susceptibility of the bacterial isolates to conventional antibiotics, commercially available antibiotic discs were used. Antibiotic discs (Oxoid® CT series) containing Ampicillin [Amp] (2 and 10 μg), Erythromycin [Ery] (5 and 15 μg), Streptomycin [Str] (10 and 25 μg) and Tetracycline [Tet] (5 and 30 μg) were placed on lawns of the bacterial strains inoculated as described below.
Sterile swabs dipped into the cultures were used to inoculate Marine Agar plates with a bacterial lawn by smearing the culture over the surface. After inoculating the plates, discs with antibiotics, pharmaceuticals or control blanks were placed on each plate. Each concentration of antibiotic or pharmaceutical was tested with three replicates on three separate occasions. After the disks were placed on the agar surface, plates were incubated overnight in the dark at 30° C. After incubation, plates were examined for zones of inhibition or clearing around control and treated disks. The diameter of any zone of clearing or inhibition was measured using Vernier calipers.
The assay was repeated three times with three replicates for each concentration used, each time.

CCCCCCCCn1sc(Cl)c(Cl)c1=O [Sea Nine]
ED50 [1]: 0.33 ppm

CC1(C)S[C@@H]2[C@H](NC(=O)[C@H](N)c3ccccc3)C(=O)N2[C@H]1C(=O)O [Amp, ampicillin]
zone of inhibition at 2 µg/disc ([2]; strain 1 (Rhodovulum)): 10 to 19 mm
zone of inhibition at 10 µg/disc ([2]; strain 1 (Rhodovulum)): 20 to 29 mm
zone of inhibition at 2 µg/disc ([2]; strain 2 (Erythrobacter)): < 6 mm
zone of inhibition at 10 µg/disc ([2]; strain 2 (Erythrobacter)): 10 to 19 mm
zone of inhibition at 2 µg/disc ([2]; strain 3 (Erythrobacter)): < 6 mm
zone of inhibition at 10 µg/disc ([2]; strain 3 (Erythrobacter)): < 6 mm
zone of inhibition at 2 µg/disc ([2]; strain 4 (Bacillus)): > 40 mm
zone of inhibition at 10 µg/disc ([2]; strain 4 (Bacillus)): > 40 mm
zone of inhibition at 2 µg/disc ([2]; strain 6 (Vibrio)): < 6 mm
zone of inhibition at 10 µg/disc ([2]; strain 6 (Vibrio)): < 6 mm
zone of inhibition at 2 µg/disc ([2]; strain 7 (Vibrio)): 6 to 9 mm
zone of inhibition at 10 µg/disc ([2]; strain 7 (Vibrio)): 10 to 19 mm
zone of inhibition at 2 µg/disc ([2]; strain 8 (Bacillus)): 20 to 29 mm
zone of inhibition at 10 µg/disc ([2]; strain 8 (Bacillus)): 30 to 39 mm
zone of inhibition at 2 µg/disc ([2]; strain 9 (Bacillus)): 10 to 19 mm
zone of inhibition at 10 µg/disc ([2]; strain 9 (Bacillus)): 30 to 39 mm
zone of inhibition at 2 µg/disc ([2]; strain 10 (Halobacillus)): 30 to 39 mm
zone of inhibition at 10 µg/disc ([2]; strain 10 (Halobacillus)): > 40 mm
zone of inhibition at 2 µg/disc ([2]; strain 11 (Pseudomonas)): 20 to 29 mm
zone of inhibition at 10 µg/disc ([2]; strain 11 (Pseudomonas)): 30 to 39 mm
zone of inhibition at 2 µg/disc ([2]; strain 12 (Gordonia)): < 6 mm
zone of inhibition at 10 µg/disc ([2]; strain 12 (Gordonia)): < 6 mm
zone of inhibition at 2 µg/disc ([2]; strain 13 (Bacillus)): 10 to 19 mm
zone of inhibition at 10 µg/disc ([2]; strain 13 (Bacillus)): 10 to 19 mm
zone of inhibition at 2 µg/disc ([2]; strain 14 (Vibrio)): 10 to 19 mm
zone of inhibition at 10 µg/disc ([2]; strain 14 (Vibrio)): 20 to 29 mm
zone of inhibition at 2 µg/disc ([2]; strain 16 (Pseudoalteromonas)): 6 to 9 mm
zone of inhibition at 10 µg/disc ([2]; strain 16 (Pseudoalteromonas)): 10 to 19 mm
zone of inhibition at 2 µg/disc ([2]; strain 17 (Gordonia)): < 6 mm
zone of inhibition at 10 µg/disc ([2]; strain 17 (Gordonia)): < 6 mm
zone of inhibition at 2 µg/disc ([2]; strain 18 (Microbacterium)): 20 to 29 mm
zone of inhibition at 10 µg/disc ([2]; strain 18 (Microbacterium)): 20 to 29 mm
zone of inhibition at 2 µg/disc ([2]; strain 19 (Erythrobacter)): 20 to 29 mm
zone of inhibition at 10 µg/disc ([2]; strain 19 (Erythrobacter)): 20 to 29 mm
zone of inhibition at 2 µg/disc ([2]; strain 20): < 6 mm
zone of inhibition at 10 µg/disc ([2]; strain 20): 20 to 29 mm
zone of inhibition at 2 µg/disc ([2]; strain 21): < 6 mm
zone of inhibition at 10 µg/disc ([2]; strain 21): < 6 mm
zone of inhibition at 2 µg/disc ([2]; strain 22): 10 to 19 mm
zone of inhibition at 10 µg/disc ([2]; strain 22): 10 to 19 mm
zone of inhibition at 2 µg/disc ([2]; strain 24): 30 to 39 mm
zone of inhibition at 10 µg/disc ([2]; strain 24): > 40 mm
zone of inhibition at 2 µg/disc ([2]; strain 26): 10 to 19 mm
zone of inhibition at 10 µg/disc ([2]; strain 26): 10 to 19 mm
zone of inhibition at 2 µg/disc ([2]; strain 27): 20 to 29 mm
zone of inhibition at 10 µg/disc ([2]; strain 27): 30 to 39 mm
zone of inhibition at 2 µg/disc ([2]; strain 28): 6 to 9 mm
zone of inhibition at 10 µg/disc ([2]; strain 28): 10 to 19 mm
zone of inhibition at 2 µg/disc ([2]; strain 29): 30 to 39 mm
zone of inhibition at 10 µg/disc ([2]; strain 29): 30 to 39 mm
zone of inhibition at 2 µg/disc ([2]; strain 30): 30 to 39 mm
zone of inhibition at 10 µg/disc ([2]; strain 30): 20 to 29 mm
